Measured values reported in ChEMBL document CHEMBL1201862, “PubChem BioAssay data set” (2004).
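All cell lines were grown in 96-well plates and treated with compound for 48 hours. GI50 = concentration required for 50% inhibition of growth.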 The source made the active and inactive calls. Cut-off read from the data, not from the text of the source: active = GI50 up to about 1.1 µM and inactive = higher.

Legend:
Assay in all cases: DTP human tumour cell line panel, 48 h
MOLT-4 = system: MOLT-4
K562 = system: K562
OVCAR-4 = system: OVCAR-4
SNB-75 = system: SNB-75
MDA-MB-435 = system: MDA-MB-435
HT-29 = system: HT-29
PC-3 = system: PC-3
HCT-116 = system: HCT-116
OVCAR-8 = system: OVCAR-8
SF-295 = system: SF-295
A549 = system: A549
SF-539 = system: SF-539
NCI/ADR-RES = system: NCI/ADR-RES
OVCAR-5 = system: OVCAR-5
SK-MEL-28 = system: SK-MEL-28
HCT-15 = system: HCT-15
DU-145 = system: DU-145
OVCAR-3 = system: OVCAR-3
NCI-H522 = system: NCI-H522
RPMI-8226 = system: RPMI-8226

Measured: GI50

CCOP(=O)(OCC)/C(=C/c1ccccc1)CC(C)=O
inactive: MOLT-4 > 100 µM | K562 > 100 µM | OVCAR-4 > 100 µM | SNB-75 > 100 µM | MDA-MB-435 > 100 µM | HT-29 > 100 µM | PC-3 > 100 µM | HCT-116 > 100 µM | OVCAR-8 > 100 µM | SF-295 > 100 µM | A549 > 100 µM | SF-539 > 100 µM | NCI/ADR-RES > 100 µM | OVCAR-5 > 100 µM | SK-MEL-28 > 100 µM | DU-145 > 100 µM | OVCAR-3 > 100 µM
> 100 µM: HCT-15

CC12CCC(CC1=O)C2(C)CCC(N)=O (stereo unspecified)
> 100 µM: HCT-15
inactive: MOLT-4 > 100 µM | K562 > 100 µM | OVCAR-4 > 100 µM | MDA-MB-435 > 100 µM | HT-29 > 100 µM | PC-3 > 100 µM | NCI-H522 > 100 µM | HCT-116 > 100 µM | OVCAR-8 > 100 µM | SF-295 > 100 µM | A549 > 100 µM | NCI/ADR-RES > 100 µM | OVCAR-5 > 100 µM | SK-MEL-28 > 100 µM | RPMI-8226 > 100 µM | DU-145 > 100 µM | OVCAR-3 > 100 µM

Cn1c2ccccc2c2cc(N3CCCC3)c3c(c21)C(=O)N(c1ccccc1)C3=O
inactive: MOLT-4 > 100 µM | K562 > 100 µM | OVCAR-4 38.9 µM | SNB-75 38.4 µM | MDA-MB-435 > 100 µM | HT-29 > 100 µM | PC-3 > 100 µM | NCI-H522 > 100 µM | HCT-116 > 100 µM | OVCAR-8 > 100 µM | SF-295 > 100 µM | A549 > 100 µM | NCI/ADR-RES > 100 µM | OVCAR-5 > 100 µM | SK-MEL-28 > 100 µM | RPMI-8226 > 100 µM | DU-145 > 100 µM | OVCAR-3 > 100 µM
> 100 µM: HCT-15

COc1ccc(/C=C2\CSC/C(=C\c3ccc(OC)c(OC)c3OC)C2=O)c(OC)c1OC
25.6 µM: HCT-15
inactive: MOLT-4 > 10 µM | K562 23.1 µM | HT-29 28.8 µM | PC-3 47.3 µM | HCT-116 17 µM | OVCAR-8 24.1 µM | SF-295 25.4 µM | A549 > 100 µM | SF-539 26.4 µM | NCI/ADR-RES 23.1 µM | OVCAR-5 > 100 µM | SK-MEL-28 28.1 µM | RPMI-8226 16.4 µM | DU-145 > 100 µM | OVCAR-3 52.1 µM

S=C1CCSc2c(ccc3ccccc23)N1
> 100 µM: HCT-15
inactive: MOLT-4 30 µM | K562 56 µM | OVCAR-4 46.7 µM | SNB-75 74.3 µM | MDA-MB-435 > 100 µM | HT-29 > 100 µM | PC-3 41 µM | NCI-H522 58.5 µM | HCT-116 > 100 µM | OVCAR-8 > 100 µM | SF-295 45.8 µM | A549 > 100 µM | NCI/ADR-RES > 100 µM | OVCAR-5 > 100 µM | SK-MEL-28 > 100 µM | DU-145 > 100 µM | OVCAR-3 > 100 µM

O=C(NCc1cccc(C(F)(F)F)c1)c1cc2sccc2nc1C(F)(F)F
inactive: MOLT-4 82.2 µM | K562 > 100 µM | OVCAR-4 32.7 µM | MDA-MB-435 > 100 µM | HT-29 > 100 µM | PC-3 > 100 µM | NCI-H522 62.7 µM | HCT-116 > 100 µM | OVCAR-8 88.7 µM | SF-295 46.7 µM | A549 > 100 µM | SF-539 63.7 µM | NCI/ADR-RES > 100 µM | OVCAR-5 > 100 µM | SK-MEL-28 > 100 µM | RPMI-8226 > 100 µM | OVCAR-3 83.4 µM

COc1ccccc1CNC1=Nc2ccncc2S(=O)(=O)N1c1ccccc1
inactive: MOLT-4 69 µM | K562 71 µM | OVCAR-4 > 100 µM | MDA-MB-435 > 100 µM | HT-29 > 100 µM | PC-3 31 µM | NCI-H522 25.1 µM | HCT-116 70.5 µM | OVCAR-8 84.7 µM | SF-295 41.1 µM | A549 > 100 µM | NCI/ADR-RES 57.5 µM | OVCAR-5 > 100 µM | SK-MEL-28 > 100 µM | RPMI-8226 60.5 µM | DU-145 97.5 µM | OVCAR-3 > 100 µM
49.7 µM: HCT-15

CCOC(=O)c1c(-c2ccc(OC)cc2)c(C#N)c(=S)n(C2OC(COC(C)=O)C(OC(C)=O)C(OC(C)=O)C2OC(C)=O)c1-c1ccccc1 (stereo unspecified)
inactive: MOLT-4 > 100 µM | K562 > 100 µM | OVCAR-4 > 100 µM | SNB-75 60 µM | MDA-MB-435 > 100 µM | HT-29 > 100 µM | PC-3 > 100 µM | HCT-116 > 100 µM | SF-295 > 100 µM | A549 > 100 µM | SF-539 > 100 µM | NCI/ADR-RES > 100 µM | OVCAR-5 > 100 µM | SK-MEL-28 > 100 µM | RPMI-8226 > 100 µM | DU-145 > 100 µM | OVCAR-3 > 100 µM
> 100 µM: HCT-15

CN1C(=O)C(C(=O)Nc2ccccn2)C2C[C@@]1(C)Oc1ccccc12 (stereo partly specified)
> 100 µM: HCT-15
inactive: MOLT-4 62.7 µM | K562 > 100 µM | OVCAR-4 > 100 µM | SNB-75 > 100 µM | MDA-MB-435 > 100 µM | HT-29 > 100 µM | PC-3 > 100 µM | NCI-H522 > 100 µM | HCT-116 > 100 µM | OVCAR-8 > 100 µM | SF-295 > 100 µM | A549 > 100 µM | NCI/ADR-RES > 100 µM | OVCAR-5 > 100 µM | SK-MEL-28 > 100 µM | RPMI-8226 56.1 µM | DU-145 > 100 µM | OVCAR-3 > 100 µM

CC(C)(C)C(=O)C(Cc1ccccc1)C(=O)C(C)(C)C
> 100 µM: HCT-15
inactive: MOLT-4 50.7 µM | K562 55 µM | OVCAR-4 66.1 µM | SNB-75 > 100 µM | HT-29 39.4 µM | PC-3 46.7 µM | NCI-H522 98.4 µM | HCT-116 52.6 µM | OVCAR-8 > 100 µM | SF-295 > 100 µM | A549 > 100 µM | SF-539 > 100 µM | NCI/ADR-RES 51.6 µM | OVCAR-5 > 100 µM | SK-MEL-28 > 100 µM | RPMI-8226 37.4 µM | DU-145 > 100 µM | OVCAR-3 55 µM

COC(=O)C(CCCCN)NC(=O)C(CCCCN)NC(=O)C(CCCCN)NC(C)=O.Cc1ccc(C(=O)Nc2ccc(S(=O)(=O)O)c3cc(S(=O)(=O)O)cc(S(=O)(=O)O)c23)cc1NC(=O)c1cccc(NC(=O)Nc2cccc(C(=O)Nc3cc(C(=O)Nc4ccc(S(=O)(=O)O)c5cc(S(=O)(=O)O)cc(S(=O)(=O)O)c45)ccc3C)c2)c1
inactive: MOLT-4 > 50 µM | K562 > 50 µM | OVCAR-4 11.3 µM | SNB-75 10.7 µM | MDA-MB-435 > 50 µM | HT-29 > 50 µM | PC-3 > 50 µM | HCT-116 > 50 µM | OVCAR-8 > 50 µM | SF-295 > 50 µM | A549 > 50 µM | SF-539 > 50 µM | NCI/ADR-RES > 50 µM | OVCAR-5 > 50 µM | SK-MEL-28 > 50 µM | RPMI-8226 > 50 µM | DU-145 > 50 µM | OVCAR-3 > 50 µM
18.6 µM: HCT-15

Cc1[nH]c2ncn(Nc3ccccc3)c(=N)c2c1Cc1ccccc1
4.34 µM: HCT-15
active: K562 0.0578 µM | MDA-MB-435 0.491 µM | HCT-116 0.522 µM
inactive: MOLT-4 35.6 µM | OVCAR-4 > 27.5 µM | SNB-75 71.3 µM | HT-29 2.6 µM | PC-3 23.4 µM | OVCAR-8 32.9 µM | A549 1.48 µM | SF-539 > 100 µM | NCI/ADR-RES 29.6 µM | OVCAR-5 11.2 µM | RPMI-8226 > 60.7 µM | DU-145 35.4 µM | OVCAR-3 30.1 µM

COC(=O)[C@@H](Cc1ccccc1)NNC(=O)OC(C)(C)C
inactive: MOLT-4 > 100 µM | K562 > 100 µM | OVCAR-4 > 100 µM | MDA-MB-435 > 100 µM | PC-3 > 100 µM | NCI-H522 > 100 µM | HCT-116 > 100 µM | OVCAR-8 > 100 µM | SF-295 > 100 µM | A549 > 100 µM | SF-539 > 100 µM | NCI/ADR-RES > 100 µM | OVCAR-5 > 100 µM | SK-MEL-28 > 100 µM | RPMI-8226 > 100 µM | DU-145 > 100 µM | OVCAR-3 > 100 µM
> 100 µM: HCT-15

COC(=O)C1=C(O)C(C(=O)OC)[C@]2(O)[C@H](C(=O)OC)[C@H]1C[C@@H](c1ccc(OC)c(OC)c1)[C@H]2C(=O)OC (stereo partly specified)
14 µM: HCT-15
inactive: MOLT-4 17.5 µM | K562 13.6 µM | OVCAR-4 29.6 µM | SNB-75 7.8 µM | MDA-MB-435 11.3 µM | HT-29 36.9 µM | PC-3 25.4 µM | HCT-116 21 µM | OVCAR-8 13.3 µM | SF-295 17.9 µM | A549 11.6 µM | SF-539 4.78 µM | NCI/ADR-RES 15.5 µM | OVCAR-5 23.6 µM | SK-MEL-28 19.2 µM | RPMI-8226 3.27 µM | DU-145 19.9 µM | OVCAR-3 16.5 µM

CC(C)C1=CC23CCC4C(C)(C(=O)O)CCCC4(C)C2CC1C(C(=O)O)C3C(=O)O (stereo unspecified)
inactive: MOLT-4 > 100 µM | K562 > 100 µM | OVCAR-4 > 100 µM | SNB-75 > 100 µM | MDA-MB-435 > 100 µM | HT-29 > 100 µM | PC-3 > 100 µM | NCI-H522 > 100 µM | HCT-116 > 100 µM | OVCAR-8 > 100 µM | SF-295 > 100 µM | A549 > 100 µM | NCI/ADR-RES > 100 µM | OVCAR-5 > 100 µM | SK-MEL-28 > 100 µM | DU-145 > 100 µM | OVCAR-3 > 100 µM
> 100 µM: HCT-15
